Measured values taken from patent publication EP0827486B1, “STABILIZED ALKALI OR ALKALINE EARTH METAL HYPOBROMITE AND PROCESS FOR ITS PRODUCTION” (NALCO CHEMICAL COMPANY, priority 1996, dated 1997).

Key:
[1] = Bromate analysis of cooling water dosed with dilute solutions; type: physicochemical; conditions: cooling water (pH 8.3); total available halogen 1, 2, 3, and 4 ppm (as Cl2)
Protocol: As noted above, the pH of these solutions was high which favors bromate formation. However, NaOCl, which contains significant amounts of NaOH, is typically diluted with system water prior to the introduction of the bromide species in most industrial applications. The pH of this diluted system would be lower than the neat NaOCI / NaBr formulation described above theoretically minimizing bromate formation. The available chlorine in a NaOCI sample diluted (1:100) with distilled water was titrated by the DPD-FAS method. A solution of 45 percent sodium bromide was added to the dilute NaOCI at a molar ratio of 1 Cl2 : 1 Br^- forming NaOBr. This reaction proceeded for thirty minutes. Then, appropriate volumes of this dilute NaOBr solution were added to cooling water (pH 8.3) giving total available halogen levels of 1, 2, 3, and 4 ppm (as Cl2) as determined by the DPD-FAS method. Similarly, a dilution of stabilized sodium hypobromite (1:100) was made in distilled water. Dilute stabilized NaOBr was added to cooling water (pH 8.3) giving total available halogen levels of 1, 2, 3, and 4 ppm (as Cl2) as determined by the DPD-FAS method. Bromate analysis then proceeded in the manner described above. Bromate was not detected in any of the cooling water samples dosed with either stabilized or unstabilized dilute NaOBr at typical use concentrations.

[2] = Bromate formation in stored solutions (ion chromatography); type: physicochemical; conditions: STORED FOR EIGHT MONTHS in the dark at room temperature; pH 14
Protocol: Hypohalite ions are known to disproportionate into halate and halide under alkaline conditions. Halate ions are undesirable degradants being suspect carcinogens and are under consideration for governmental regulation. The reaction of NaBr with NaOCI can yield significant amounts of bromate in elevated pH environments. […] Stabilized and unstabilized sodium hypobromite solutions were prepared as described in Example One. These solutions were stored in the dark at room temperature during the course of the study. Eight month old samples of stabilized and unstabilized NaOBr, both maintained at pH 14, a condition suitable for bromate formation, were assayed for bromate. A Dionex 4000 series gradient ion chromatography system equipped with AG9-SC/AS9-SC columns and a conductivity detector was used to measure the bromate concentration in the samples. The chromatograph was operated according to a method currently under investigation by the EPA for the analysis of bromate in ozonated drinking water. Purified water from an Interlake Water Systems deionization system was used for the preparation of all reagents and standard solutions to prevent contamination.

[3] = Volatility: halogen vapors from concentrated solutions in a beaker; type: physicochemical; conditions: concentrated solution in a beaker
Protocol: Concentrated solutions of either NaOCI, NaOBr, or stabilized NaOBr were added to a beaker. […] No odors were noticed from the stabilized NaOBr. This is an improvement over existing products by minimizing halogen odors in product storage areas.

[4] = Description: AOX is a generic class of compounds which includes all organic molecules containing halogen. Limits for AOX discharge from cooling water systems have already been established in some European countries. To simulate AOX formation during stabilized and unstabilized sodium hypobromite action in cooling water, a mixed bacterial culture typically found in cooling water was cultivated in L-broth overnight and the cells harvested by centrifugation. The cell pellet was washed with synthetic cooling water (90 ppm calcium, 50 ppm magnesium, 110 ppm "M" alkalinity, pH 8.0 -8.2) twice to remove the remaining organic medium. Cells were then resuspended into an equal volume of cooling water. A capped dark bottle served as the reactor. Synthetic cooling water was added to the bottle followed by the washed bacterial stock yielding approximately 10^7 cells/ml. Stabilized NaOBr or unstabilized NaOBr was dosed into this bacterial suspension at a final concentration of 1, 2, 3, or 4 ppm total halogen (as chlorine). Headspace in the bottle was minimized to avoid the evaporative loss of halogenated organics and the solution stirred for 24 hours to simulate a typical cooling system. Immediately before AOX analysis, the sample was acidified to pH 2.0 with concentrated nitric acid. A Mitsubishi TOX-10 Analyzer was used according to US EPA Method 9020 to measure the AOX concentration in the samples. […]
[5] = Storage stability: loss of available halogen; type: physicochemical
Protocol: Sodium hypochlorite solution was diluted in demand-free water. This diluted solution was titrated by the DPD-FAS method. The available chlorine level present in the original solution was determined to be 15 percent. 42.4 grams of the neat NaOCl solution were added to 20.5 grams of a 45 percent NaBr solution. This reaction forms unstabilized NaOBr. The stabilization solution was formulated with 9.6 grams of sulfamic acid, 14 grams of water, and 13.2 grams of 50 percent sodium hydroxide. The stabilization solution is then added with stirring to the NaOBr. The order of addition is critical in this process which differs from the Goodenough et al. reference. For instance, if the stabilizer was added to NaOCl prior to NaBr introduction, the bromide would not be oxidized to hypobromite. […] The stabilization procedure described here improved on the prior art as the decline of active ingredient was only 1 percent after 84 days (see Table I above). An unstabilized NaOBr solution prepared in an similar process by replacing sulfamic acid with distilled water lost 94 percent available halogen during the same period.

Pseudomonas aeruginosa = assay: Antibacterial activity of stored hypohalite solutions in cooling water; type: cell-based; conditions: volume initially required for one ppm free halogen
Protocol: Freshly prepared solutions of stabilized and unstabilized sodium hypobromite were diluted then added to cooling water in order to achieve a one ppm free halogen residual (as chlorine). Sodium hypochlorite was stabilized in the same fashion as described for NaOBr in Example One with the exception that NaBr was directly replaced with distilled water. Stabilized and unstabilized sodium hypochlorite were diluted then added to cooling water at a final concentration of one ppm free halogen residual (as chlorine). The volumes of all solutions needed to achieve a one ppm free halogen residual (as chlorine) was recorded. Following 6 and 21 days of dark storage, identical dilutions of stabilized and unstabilized sodium hypohalite solutions were prepared and the volume originally required for a one ppm free halogen residual (as chlorine) was added to cooling water containing approximately 10^6 Pseudomonas aeruginosa cells / mL. Aliquots were extracted at 10 and 30 minutes into cooling water dilution blanks containing a halogen neutralizer (0.05 percent Na2S2O3) then enumerated on tryptone glucose extract agar. Stabilized NaOBr retained its antibacterial activity after storage while the unstabilized form lost its efficacy against Pseudomonas aeruginosa (see Table III below). The results were even more dramatic as the storage period increased. This effect was likely due to the disproportionation of the unstable hypobromite ion into the non-biocidal species bromide and bromate. […]

[6] = 6 DAYS OF STORAGE, CONTACT TIME 10 MINUTES
[7] = 6 DAYS OF STORAGE, CONTACT TIME 30 MINUTES
[8] = 21 DAYS OF STORAGE, CONTACT TIME 10 MINUTES
[9] = 21 DAYS OF STORAGE, CONTACT TIME 30 MINUTES

SMILES	Bromate [1]	PERCENT BROMATE [2] [%]	Halogen vapors / odors [3]	linear-fit equation AOX (ppb) = factor X Dose (ppm) [4]	% LOSS OF AVAILABLE HALOGEN ([5]; After 14 days) [%]	% LOSS OF AVAILABLE HALOGEN ([5]; After 21 days) [%]	% LOSS OF AVAILABLE HALOGEN ([5]; After 34 days) [%]	% LOSS OF AVAILABLE HALOGEN ([5]; After 84 days) [%]	% LOSS OF AVAILABLE HALOGEN ([5]; After 84 days, listed as unstabilized NaOBr) [%]	% BACTERIA KILLED (Pseudomonas aeruginosa; [6]) [%]	% BACTERIA KILLED (Pseudomonas aeruginosa; [7]) [%]	% BACTERIA KILLED (Pseudomonas aeruginosa; [8]) [%]	% BACTERIA KILLED (Pseudomonas aeruginosa; [9]) [%]
[Na+].[O-]Br [Unstabilized Sodium Hypobromite, sodium hypobromite]	not detected	2.700	Halogen vapors were detected	53.9	74	79	84	93	94	99.8	99.7	0.4	6.1
[Na+].[O-]Cl [unstabilized NaOCl, sodium hypochlorite]			Halogen vapors were detected							100	100	100	100
